{"source": "patent US20150258192A1", "about": "“COMPOSITIONS AND METHODS FOR PREVENTING OR TREATING CHRONIC LUNG ALLOGRAFT DYSFUNCTION (CLAD) AND IDIOPATHIC PULMONARY FIBROSIS (IPF)” (priority 2014, published 2015)", "key": {"[1]": {"tested_on": "fibroblasts from bleomycin treated murine hyaluronan synthase 2 (mHAS2) lung", "assay": "HA production of fibroblasts", "format": "cell-based, mouse"}, "[2]": {"biological_target": "T1, human recombinant MK2 (h) (Homo sapiens, UniProt P49137)", "T1 construct": "purchased Millipore (IC50 Profiler Express service)", "T1 sequence (P49137 whole entry)": "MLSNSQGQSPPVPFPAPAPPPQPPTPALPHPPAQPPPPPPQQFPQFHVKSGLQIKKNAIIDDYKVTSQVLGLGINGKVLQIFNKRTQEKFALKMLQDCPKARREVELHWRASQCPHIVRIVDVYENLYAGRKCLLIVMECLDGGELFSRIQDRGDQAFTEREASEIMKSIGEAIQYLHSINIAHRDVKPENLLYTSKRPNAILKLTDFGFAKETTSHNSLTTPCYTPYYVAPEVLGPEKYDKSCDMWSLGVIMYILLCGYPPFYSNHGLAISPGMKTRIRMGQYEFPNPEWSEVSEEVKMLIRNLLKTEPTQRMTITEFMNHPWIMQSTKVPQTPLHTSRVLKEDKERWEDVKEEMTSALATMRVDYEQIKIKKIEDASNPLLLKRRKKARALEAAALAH", "assay": "Radiometric IC50 Determination", "format": "biochemical", "conditions": "10-point curve; ATP within 15 μM of apparent Km", "protocol": "The IC50 value was estimated from a 10-point curve of one-half log dilutions. Peptide was supplied in dimethyl sulfoxide (DMSO). Specifically, human recombinant MK2 (h) (5-10 mU) was incubated with 50 mM sodium 3-glycerophosphate (pH=7.5), 0.1 mM EGTA, 30 μM of substrate peptide ([…]; SEQ ID NO: 21), 10 mM magnesium acetate, and 90 uM γ-^33P-ATP (final volume of 25 μL) for 40 minutes at room temperature. Then, the reaction was stopped with 3% phosphoric acid. 10 μL of this mixture was spotted onto a P30 filtermat and washed three times for five minutes with 75 mM phosphoric acid and once with methanol. Finally, the membrane was dried and a scintillation counter was used.\nSpecifically, in these assays, a positively charged substrate is phosphorylated with a radiolabeled phosphate group from an ATP if the kinase is not inhibited by an inhibitor peptide. The positively charged substrate then is attracted to a negatively charged filter membrane, quantified with a scintillation counter, and compared to a 100% activity control."}, "splenic T cells": {"tested_on": "splenic T cells", "assay": "Autologous mixed lymphocyte reaction (MLR) of splenic T cells from treated bleomycin mice", "format": "in vivo, mouse", "from_the_text": "Recent studies highlighted a key role for T lymphocytes in bleomycin-induced fibrosis (Wilson, M. et al., The Journal of Experimental Medicine, 207(3): 535-552, 2010). […] Specifically, the ability of C57BL/6 purified antigen-presenting cells to induce proliferation in C57BL/6 T lymphocytes was examined in the assay.\nC57-BL/6 mice were subjected to bleomycin injury at day 0. […] Splenic T cells were isolated and cultured alone or in the presence of autologous antigen presenting cells (APCs from C57-BL/6 mice) or stimulated with antibodies against CD3 (α-CD3) for 48 h. The cells then were radiolabeled with […] thymidine for 16 h and assessed for proliferation rates.\nThe viability of the T cells also was confirmed by stimulating the cells with antibodies against α-CD3, a polyclonal T cell activator. α-CD3 induced robust proliferation of the cells irrespective of the treatment group."}, "[3]": {"tested_on": "bleomycin-induced lung fibrosis in C57BL/6 mice", "conditions": "37.5 μg/kg daily for 14 d from d14, inhaled or intra-peritoneal; cited from earlier work"}, "[4]": {"tested_on": "fibroblasts from bleomycin treated mouse lung", "assay": "Matrigel invasion assay, mouse lung fibroblasts", "format": "cell-based", "conditions": "fibroblasts from WT or ASMA-HAS2 mice; 8 μm", "protocol": "Fibroblasts are critical effector cells in mediating tissue remodeling. […] We have developed a novel model of progressive lung fibrosis based on a cancer metastasis model. […] We hypothesized that fibrotic fibroblasts acquire an invasive phenotype that is essential for progressive fibrogenesis and that CD44 has a critical role in regulating the process. We utilized an assay system in which fibroblasts are evaluated for their ability to spontaneously invade Matrigel, a composite matrix with basement membrane constituents. This assay has been used to analyze the metastatic potential of cancer cells (40).\nTo determine the role of CD44 in fibroblast invasion we examined the invasive capacity of fibroblasts isolated from CD44 null mice after bleomycin treatment and found impaired invasive capacity (not shown). Similar results were found from fibroblasts isolated from ASMA-HAS2+/CD44−/− mice (FIG. 37 A). Furthermore, treating fibroblasts isolated from bleomycin-challenged wild type C57B1/6J mice with anti-CD44 Abs blunted fibroblast invasion (FIG. 37 B)."}, "mesothelial cells": {"tested_on": "mesothelial cells", "conditions": "cited from earlier work"}, "[5]": {"tested_on": "bleomycin-induced lung fibrosis in C57BL/6 mice", "assay": "Bleomycin mouse model of pulmonary fibrosis (IPF treatment model)", "format": "in vivo", "conditions": "for lung architecture and collagen distribution (H&E, Masson's trichrome), day 28: daily day 14-28 post bleomycin", "protocol": "A mouse model of pulmonary fibrosis was generated by administering 0.025 U of bleomycin/PBS intratracheally to C57BL/6 mice. […] At 21 day post bleomycin delivery (for prevention model) or 28 post bleomycin delivery (for treatment model), groups of mice were sacrificed with a sodium pentobarbital injection (120 mg/kg) and the chest cavity was opened. The right mainstem bronchus was ligated and the right lung was removed. The trachea was cannulated and the left lung was perfused with 4% formaldehyde at 21 cm H2O pressure. The tissue blocks then were embedded in paraffin, and […] sections were prepared for staining. Sections from each animal were stained with hematoxylin and eosin (H&E) to visualize cells or with Masson's Trichrome staining to highlight collagen deposition. […] Stained sections were mounted onto a labeled glass slide with organic mounting medium.\nThe classic bleomycin model, as depicted in FIG. 10, has been used widely in the literature in the pre-fibrotic stage to test efficacy of any intervention.\nMore specifically, fibrotic loci in the lungs were induced by delivering intratracheally about 0.025 U of bleomycin (dissolved in PBS) to C57BL/6 mice. […] Mice were sacrificed with a sodium pentobarbital injection (120 mg/kg) and the chest cavity was opened. The right mainstem bronchus was ligated and the right lung is removed. The trachea was cannulated and the left lung was perfused with 4% formaldehyde at 21 cm H2O pressure. The tissue blocks then were embedded in paraffin, and […] sections were prepared, and stained with hematoxylin and eosin (H&E; for pathological examination) or Masson's Trichrome (for collagen staining)\nNext, collagen deposition was determined quantitatively by using the standard hydroxyproline assay with whole left lung. Total collagen (soluble and insoluble) deposition was assessed by analyzing hydroxyproline concentrations in murine lungs day 28 post bleomycin injury."}, "[6]": {"tested_on": "bleomycin treated wild type (WT) mouse lung", "assay": "HA content in bleomycin treated mouse lung", "conditions": "in vivo"}, "IL-6": {"tested_on": "IL-6", "assay": "Circulating inflammatory cytokines, bleomycin treatment model", "format": "in vivo, mouse", "conditions": "24 hours after final administration"}}, "note": "No end group written: not given here."}
{"sequence": "YARAAARQARAKALARQLGVAA [MMI-0100]", "values": [{"measurement": "hyaluronan (HA) production", "setting": "[1]", "value": "reduced"}, {"measurement": "IC50", "setting": "[2]", "value": 22, "unit": "µM"}, {"measurement": "toxicity (splenic T cell response to α-CD3)", "setting": "splenic T cells; 50 μg/kg/day", "value": "no toxicity"}, {"measurement": "systemic distribution", "setting": "splenic T cells; nebulized delivery, inferred from lack of splenic T cell response", "value": "little systemic distribution"}, {"measurement": "progression of fibrosis (collagen deposition, myofibroblast differentiation, activated MK2 expression)", "setting": "[3]", "value": "inhibited"}, {"measurement": "fibroblast invasion", "setting": "[4]", "value": "significantly reduced"}, {"measurement": "TFG-β-induced cytokine release", "setting": "mesothelial cells", "value": "inhibits"}, {"measurement": "progression of collagen deposition (hydroxyproline assay, whole left lung), day 28", "setting": "[5]; 50 μg/kg/day IP or nebulizer from day 14", "value": "significantly arrested further progression"}, {"measurement": "lung architecture and collagen distribution (H&E, Masson's trichrome), day 28", "setting": "[5]; intraperitoneally", "value": "rescued"}, {"measurement": "lung architecture and collagen distribution (H&E, Masson's trichrome), day 28", "setting": "[5]; locally applied to the lung (nebulized)", "value": "rescued"}, {"measurement": "hyaluronan (HA) content in lung", "setting": "[6]", "value": "reduced"}, {"measurement": "plasma level of IL-6", "setting": "IL-6; intraperitoneal", "value": "significantly reduced"}, {"measurement": "plasma level of IL-6", "setting": "IL-6; nebulized", "value": "significantly reduced"}]}
